How the values were obtained:
Format in all cases: cell-based, Chinese hamster
[1] = tested on: monoclonal antibody (Ab1) producing cell line derived from CHO-K1; test: High-throughput shake flask culture, 17 days, antibody titer (Example 1A); conditions: 1 mM taurine at day 0
Experimental: Example 1A—High-Throughput Shake Flask Culture: 250 mL shake flasks were inoculated from a seed culture of a monoclonal antibody (Abl) producing cell line derived from CHO-K1. The inoculated cells were grown at 35.5° C. for seventeen days and fed glucose and other supplemental nutrients as needed. Cells were grown in chemically defined (hydrolysate-free and serum-free) base media. Each culture flask was either unsupplemented (Flask 1a), or supplemented with 1 mM taurine at day 0 (Flask 1 b).

[2] = tested on: monoclonal antibody (Ab2) producing cell line derived from CHO-K1; test: Benchtop-scale 2L bioreactor culture, 14 days, antibody titer (Example 1B), Ab2; conditions: about 1 mM taurine on day 0, day 14; for Ab2 approximate titer increase relative to baseline: Bioreactor 2b vs 2a
Experimental: (§1) Example 1B—Benchtop-Scale Bioreactors: In a similar example, yet on a larger scale of production, 2L bioreactors were inoculated from a seed culture of a monoclonal antibody (Ab2, Ab3 or Ab4) producing cell line derived from CHO-K1. The inoculated cultures were grown at a temperature of 35.5° C., DO set point of 40.4% and air sparge of 22 ccm for 14 days. […] Glucose, antifoam and basal feed were supplied to the bioreactors as needed. Cultures were grown in unsupplemented medium (Bioreactor 2a, 3a, 4a) or grown in about 1 mM taurine-supplemented medium (Ab2 and Ab3) or about 3 mM taurine-supplemented medium (Ab4), added on day 0 of production (Bioreactors 2b, 3b and 4b, respectively).

Ab1-producing CHO cells [3] = test: Ammonia by-product in shake flask culture (Example 4); conditions: taurine supplemented medium
Experimental: […] The cells were subjected to varying culture conditions similar to above where glucose/nutrient base feed was added as needed.

[4] = tested on: monoclonal antibody (Ab3) producing cell line derived from CHO-K1; test: Benchtop-scale 2L bioreactor culture, 14 days, antibody titer (Example 1B), Ab3; conditions: about 1 mM taurine on day 0; for Ab3 approximate titer increase at day 6 compared to unsupplemented medium collected on same day / Ab3 approximate titer increase at day 9 compared to unsupplemented medium collected on same day / Ab3 approximate titer increase relative to baseline: Bioreactor 3b vs 3a
Experimental: as §1

Ab1-producing CHO cells [5] = test: Shake flask culture, taurine in seed train expansion and/or production phase, 17 days, antibody titer (Example 3A); conditions: day 17
Experimental: The benefits of adding taurine to the culture during the expansion seed train phase were assessed in the high-throughput shake flask model. In flask 6a (Table 6), the Ab1-producing CHO cells were thawed in chemically defined (hydrolysate-free and serum-free) base media supplemented with 1 mM taurine. Taurine concentration of basal medium was maintained at 1 mM throughout the expansion phase. During production, the culture basal medium was supplemented with 1 mM taurine on day 0. Glucose and nutrient basal feed were supplied as needed during the 17 day production. Flask 6b cells grew in taurine-free (unsupplemented) chemically defined (hydrolysate-free and serum-free) basal medium throughout the seed train expansion phase. At day 0 of production, the culture basal medium was supplemented with 1 mM taurine. For the 17 day production, glucose and nutrient basal feeds were supplied as needed.

Ab1-producing CHO cells [6] = test: Shake flask culture, varying taurine feeding schedules during production phase, antibody titer (Example 3B)
Experimental: Example 3B: Varying Taurine Feeding Schedules during Production Phase: To determine whether varying standard feeding schedules of taurine had any effect on the protein titer for taurine-supplemented cultures, additional experiments were conducted in analogous shake flask cultures growing Ab1-producing CHO cells. The cells were subjected to varying culture conditions similar to Example 2, where the feeding schedule was the same as before, glucose/nutrient basal feed was added as needed. Ab1-producing cultures were supplemented with a total of 5 mM taurine Similar productivity (7.1 g/L, 6.8 g/L and 7.0 g/L) is observed in varying taurine feeding schedules. Titer values as compared in this experiment are not statistically different (p>0.1) (see Table 7).

[7] = tested on: monoclonal antibody (Ab4) producing cell line derived from CHO-K1; test: Benchtop-scale 2L bioreactor culture, 14 days, antibody titer (Example 1B), Ab4; conditions: about 3 mM taurine on day 0, day 14; for Ab4 approximate titer increase relative to baseline: Bioreactor 4b vs 4a
Experimental: as §1

[8] = tested on: monoclonal antibody (Ab1) producing cell line derived from CHO-K1; test: Shake flask culture with varying taurine concentrations, 14 days, antibody titer (Example 2); conditions: for Ab1 % titer increase vs unsupplemented: day 14
Experimental: Consistency of the protein titer was tested by varying the amount of taurine added to the culture at production day 0. 250 mL shake flasks were inoculated from a seed culture of a monoclonal antibody (Ab1) producing cell line derived from CHO-K1. The inoculated cells were grown at 35.5° C. for fourteen days and fed glucose and other supplemental nutrients as needed. Cells were grown in chemically defined (hydrolysate-free and serum-free) base media. Each culture contained either no taurine (unsupplemented) or taurine at 0.1 mM, 0.3 mM, 0.5 mM, 0,7 mM, 1 mM, 3 mM, 5 mM, 7,5 mM or 10 mM concentrations.

[9] = 0.1 mM taurine at day 0, shake flask 5b
[10] = 0.3 mM taurine at day 0, shake flask 5c
[11] = 0.5 mM taurine at day 0, shake flask 5d
[12] = 0.7 mM taurine at day 0, shake flask 5e
[13] = 1 mM taurine at day 0, shake flask 5f
[14] = 5 mM taurine at day 0, shake flask 5g
[15] = 7.5 mM taurine at day 0, shake flask 5h
[16] = 10 mM taurine at day 0, shake flask 5i

With NCCS(=O)(=O)O [Taurine, 2-aminoethanesulfonic acid] the “Abl Titer (average 17-day antibody titer)” value ([1]; 250 mL shake flask 1b, harvested day 17) was 7.9 g/L, the “Approximate titer increase relative to baseline” value ([1]; day 17, Flask 1b vs unsupplemented Flask 1a) was 8% and the “Ab2 Titer (average 14 day antibody titer)” value ([2]; Bioreactor 2b) was 8 g/L. For the same compound, the “Ab2 approximate titer increase relative to baseline” value [2] was 24%, the “Ab2 approximate titer increase relative to baseline” value ([2]; listed as taurine) was 24% and the “Abl Ammonia (average 17-day ammonia)” value (Ab1-producing CHO cells [3]) was 1.73 mM″. The “Ammonia decrease compared to unsupplemented medium” value (Ab1-producing CHO cells [3]; listed as taurine) was 32%, the “Ab3 Titer at day 6” value ([4]; Bioreactor 3b, day 6) was 1.9 g/L and the “Ab3 Titer at day 9” value ([4]; Bioreactor 3b, day 9) was 5.3 g/L. The “Ab3 Titer (average 14 day antibody titer)” value ([4]; Bioreactor 3b, day 14) was 7.3 g/L, the “Ab3 approximate titer increase at day 6 compared to unsupplemented medium collected on same day” value ([4]; day 6) was 12% and the “Ab3 approximate titer increase at day 6 compared to unsupplemented medium collected on same day” value ([4]; day 6, listed as taurine) was 12%. For the same compound, the “Ab3 approximate titer increase at day 9 compared to unsupplemented medium collected on same day” value ([4]; day 9) was 29%, the “Ab3 approximate titer increase at day 9 compared to unsupplemented medium collected on same day” value ([4]; day 9, listed as taurine) was 29% and the “Ab3 approximate titer increase relative to baseline” value ([4]; day 14) was 11%. For the same compound, the “Ab3 approximate titer increase relative to baseline” value ([4]; day 14, listed as taurine) was 11%, the “Ab1 Titer (average 17-day)” value (Ab1-producing CHO cells [5]; 1 mM taurine in Only Production Phase, shake flask 6b) was 7.8 g/L and the “Ab1 Titer (average 17-day)” value (Ab1-producing CHO cells [5]; 1 mM taurine in Seed Train and Production Phases, shake flask 6a) was 7.7 g/L. The “Ab1 Day 14 Titer” value (Ab1-producing CHO cells [6]; taurine schedule: 1 mM day 0, 2 mM days 7, 10 (5 mM total)) was 7.0 g/L, the “Ab1 Day 14 Titer” value (Ab1-producing CHO cells [6]; taurine schedule: 1 mM days 0, 3, 5, 7, 10 (5 mM total)) was 6.8 g/L and the “Ab1 Day 14 Titer” value (Ab1-producing CHO cells [6]; taurine schedule: 5 mM day 0) was 7.1 g/L. The “Ab4 Titer (average 14 day antibody titer)” value ([7]; Bioreactor 4b) was 5.3 g/L, the “Ab4 approximate titer increase relative to baseline” value [7] was 20% and the “Ab4 approximate titer increase relative to baseline” value ([7]; listed as taurine) was 20%. For the same compound, the “Ab1 Titer (average 14-day)” value [8, 9] was 6.7 g/L, the “Ab1 % titer increase vs unsupplemented” value [8, 9] was 3% and the “Ab1 Titer (average 14-day)” value [8, 10] was 6.8 g/L. For the same compound, the “Ab1 % titer increase vs unsupplemented” value [8, 10] was 5%, the “Ab1 Titer (average 14-day)” value [8, 11] was 6.9 g/L and the “Ab1 % titer increase vs unsupplemented” value [8, 11] was 6%. For the same compound, the “Ab1 Titer (average 14-day)” value [8, 12] was 7.0 g/L, the “Ab1 % titer increase vs unsupplemented” value [8, 12] was 8% and the “Ab1 Titer (average 14-day)” value [8, 13] was 7.0 g/L. For the same compound, the “Ab1 % titer increase vs unsupplemented” value [8, 13] was 8%, the “Ab1 Titer (average 14-day)” value [8, 14] was 7.1 g/L and the “Ab1 % titer increase vs unsupplemented” value [8, 14] was 9%. The “Ab1 Titer (average 14-day)” value [8, 15] was 7.1 g/L, the “Ab1 % titer increase vs unsupplemented” value [8, 15] was 9% and the “Ab1 Titer (average 14-day)” value [8, 16] was 7.1 g/L. For the same compound, the “Ab1 % titer increase vs unsupplemented” value [8, 16] was 9%.

From patent US20250327023A1, “TAURINE SUPPLEMENTED CELL CULTURE MEDIUM AND METHODS OF USE” (Regeneron Pharmaceuticals, Inc., priority 2015, published 2025)
